What was measured:
[1] = system: non-transgenic wheat plants; experiment: D-serine as a nitrogen source in hydroponics; type: in vivo, Triticum aestivum
Protocol: T1 and T2 transgenic progenies were grown on hydroponics system where hydroponics solution (Gamborg and Wetter, 1975) was modified by replacing nitrogen with D-serine in five different concentrations (20, 30, 50 70 and 100 mM). Transgenic progenies and control seedlings were grown also on standard hydroponics solution as controls. The dry weigh of all 14 days old seedlings was measured.
Catabolic products of D-serine deaminase are ammonium and pyruvate—key compounds in plant metabolism. Theoretically, transgenic plants equipped with a functional dsdA gene are expected to utilize D-serine as a nitrogen source. We investigated this phenomenon in a hydroponic growth system by exchanging the nitrogen supply with D-serine. T2 progenies representing several independent transgenic events were subjected to two sets of hydroponic experiments.
The first hydroponics experiments were performed with plants from three independent transgenic lines 2256, 2258 and 2264 carrying the dsdA and ahas selectable marker genes and a range of D-serine concentrations (FIG. 15 I). […] Statistically significant differences between controls and transgenic plants on corresponding concentrations of D-serine were detected. Two of these transgenic lines were inhibited in all tested D-serine concentrations. […]

[2] = system: wheat variety Canon immature embryos / embryogenic callus; experiment: Agrobacterium-mediated transformation with dao1 constructs and selection of transgenic plants; type: cell-based, Triticum aestivum; settings: 5 mM selection
Protocol: (§1) Explants were washed with PAW-Inf. medium and immersed in the above-described bacterial suspension for 2 h at 26° C. At the end of infection the explants were placed with scutellum side up on PAW-1 medium. The residual bacterial suspension is removed by pipeting out and air-drying of the infected embryos by opening plates for 15 min on the sterile banch. Plates were sealed with Parafilm and placed in thermostat at 26° C. in the dark for 5-6 days co-cultivation.
(§2) After co-cultivation period the explants were washed with sterile water and 500 mg/L Cefotaxime and filter paper dried before being transferred to PAW-2 callus induction-recovery medium containing 160 mg/l Timentin for 14 days (7 days dark/7 days semi light; 13.2 μmol m^−2s^−1). Explants with embryogenic callus were subculture to PAW-2 callus-proliferation medium containing 160 mg/l Timentin and corresponding selection 5 mM D-serine or 5 mM D-alanine or 3 mg/l bialaphos. In some experiments the selection on D-amino acids was starting on PAW-2 callus induction medium 0, 7, 14 and 21 days after co cultivation. Embryogenic callus was subculture twice on fresh selective medium for callus maintaining and regeneration on PAW-4 medium with corresponding selection. Cultures were maintained at 23° C. on light 60.2 μmol m^−2s^−1. Regenerated shoots were subculture to PAW-5 hormone free medium with corresponding selection (5 mM D-serine or 5 mM D-alanine or 3 mg/l bialaphos) for further growth and rooting. All media used in the transformation experiments were filter sterilized and are listed in above. After analyses transgenic plants were transferred to soil and placed for further growth in greenhouse. 1.4 Molecular and expression studies of the transgenic plants
Freshly isolated immature embryos from Canon were inoculated with Agrobacterium. In all experiments Agrobacterium tumefactions super binary vector system based on LBA4404 (pSB1) was used. The constructs pRLM205 containing the original dao1 gene and pRLM226 carrying modified Daol. Both constructs contain gusINT reporter marker gene (FIGS. 3, I and II). Following co cultivation the explants were transferred on callus induction PAW-2 selection free medium containing 160 mg/l Timentin to inhibit bacterial growth for 14 days. For selection embryogenic callus was transferred to PAW-2 selection medium containing 5 mM D-serine or 5 mM D-alanine respectively. Furthermore calli were sub cultured to fresh corresponding selection PAW-2 medium for maintaining. Embryogenic calli were trans-ferred on PAW-4 selection medium for regeneration 5-6 weeks after transformation. The emerging plantlets were further grown and rooted on PAW-5 hormone free selection medium. Well-developed and rooted on selection putative transgenic regenerants were selected in vitro within. When D-alanine was used as selection compound similar effects in callus growth, shoots regeneration and rooting of transgenic plants or non transgenic escapes selected on D-serine was observed. Both selection agents resulted with 1.1% to 1.2% transformation efficiency and no escape rate (Table 9).

[3] = system: wheat variety Canon immature embryos / embryogenic callus; experiment: Agrobacterium-mediated transformation with dsdA constructs and selection of transgenic plants; type: cell-based, Triticum aestivum
Protocol: as §1, §2
Freshly isolated immature embryos from Canon were inoculated with Agrobacterium. In all experiments Agrobacterium tumefacience LBA4404 (pSB1/pRLM167) (SEQ ID NO: 11) was used. The pRLM167 is a super binary vector containing p-ZmUBI+I::c-dsdA::t-OCS and p-ZmUBI+I::c-PAT::t-OCS selectable marker genes in expression cassettes (FIG. 1). Following co cultivation the explants were given a chance to recover for 14 days on callus induction selection free medium containing 160 mg/l Timentin to inhibit bacterial growth. Under these conditions 59% to 76% of the embryogenic callus developed over the all surface of immature embryos. Embryogenic callus was split in two and transferred to two the corresponding selection medium containing 5-mM D-serine or 3 mg/l bialaphos. During subsequent growth of callus, regeneration of plantlets, shoots elongation and roots formation the respective selection pressure was maintained in each of the corresponding medium. After 7 weeks of selection 38%-47% of the embryogenic calli regenerated with plants when selected on bialaphos or on D-serine respectively. Further selection of the regenerants was performed during the elongation and rooting of the regenerants for an additional 3 weeks. Intact in vitro transgenic shoots were selected within 10-12 weeks after co cultivation.
Freshly isolated immature embryos from Canon were inoculated with Agrobacterium. In all experiments Agrobacterium tumefacience super binary vector system based on LBA4404 (pSB1) was used. The constructs pRLM179, pRLM166, pRLM151 (FIG. 2. I, II and III) containing dsdA selectable marker gene alone or with a second gene (ahas or gusINT) were used for transformation. The explants were cultured on selection medium right away after co-cultivation with Agrobacterium or were cultivated on callus induction—recovery medium for 7, 14 and 21 days containing only 160 mg/l Timentin for inhibiting bacterial growth. Furthermore calli were sub cultured to fresh selection PAW-2 medium for proliferation. Embryogenic calli were transferred on PAW-4 selection medium for regeneration 5-6 weeks after transformation. The emerging plantlets were further grown and rooted on PAW-5 hormone free selection medium. […]

[4] = construct pRLM167 (dsdA/pat), selection on 5 mM D-serine or 3 mg/l bialaphos
[5] = pRLM179 (dsdA/AHAS), 3 mM, selection started 21 days after co-cultivation
[6] = pRLM179 (dsdA/AHAS), 5 mM, selection started 21 days after co-cultivation
[7] = pRLM179 (dsdA/AHAS), 10 mM, selection started 21 days after co-cultivation

N[C@H](CO)C(=O)O [D-serine]
growth of non-transgenic control plants in hydroponics ([1]; hydroponics solution supplemented with 30, 50 and 70 mM): not able to grow | growth of non-transgenic plants in hydroponics ([1]; nitrogen replaced by D-serine, all tested concentrations (20, 30, 50, 70 and 100 mM)): fully inhibited | ER (%) Escape Rate ([2]; pRLM205 (dao1 original)): 0% | TE (%) Transformation Efficiency ([2]; pRLM205 (dao1 original)): 1.1% | ER (%) Escape Rate ([2]; pRLM226 (dao1/ko modified)): 0% | TE (%) Transformation Efficiency ([2]; pRLM226 (dao1/ko modified)): 0.72% | ER Escape Rate (% of non-transgenic regenerants out of all selected plants) [3, 4]: 17% | TE Transformation Efficiency (% of transgenic plants out of the explants) [3, 4]: 2.1% | Average transformation efficiencies for both constructs ([3]; dsdA constructs with ahas or gusINT, selection on D-serine): about 1% | TE (%) Transformation Efficiency ([3]; pRLM166, 5 mM, start of selection 21 days): 0.69% | ER (%) Escapes Rate [3, 5]: 100% | TE (%) Transformation Efficiency [3, 5]: 0% | ER (%) Escapes Rate [3, 6]: 25% | TE (%) Transformation Efficiency [3, 6]: 1.39% | ER (%) Escapes Rate [3, 7]: 0% | TE (%) Transformation Efficiency [3, 7]: 0.77%

Reference: patent US20090106856A1, “Selection System for Wheat” (BASF PLANT SCIENCE GMBH, priority 2005, published 2009)
